According to patent publication US4340602A, “Compositions inhibiting estrogen sulfotransferase activity” (Wayne State University, priority 1978, dated 1982):
Read-outs that look alike come from different tables or passages of the source.

Assays:
[1] = target: T1, Bovine Adrenal Estrogen Sulfotransferase (Bos taurus, UniProt P19217); assay: Inhibition of bovine adrenal estrogen sulfotransferase (estrone sulfurylation); format: biochemical
T1 construct: The enzyme was isolated from the bovine adrenals; from tissue; host or cells: bovine adrenals; purified by ammonium sulfate fractionation and chromatography on DEAE-cellulose or DEAE-Sephadex A-50
T1 sequence (P19217 1-295): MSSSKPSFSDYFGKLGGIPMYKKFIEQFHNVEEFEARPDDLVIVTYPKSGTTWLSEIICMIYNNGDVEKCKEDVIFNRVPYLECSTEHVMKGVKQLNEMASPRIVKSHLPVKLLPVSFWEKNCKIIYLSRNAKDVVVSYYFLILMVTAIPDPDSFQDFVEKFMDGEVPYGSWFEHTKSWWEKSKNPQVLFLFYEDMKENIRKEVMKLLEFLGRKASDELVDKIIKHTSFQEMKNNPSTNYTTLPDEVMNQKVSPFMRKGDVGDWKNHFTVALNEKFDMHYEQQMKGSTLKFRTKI
Protocol: Materials are evaluated for activity as estrogen sulfotransferase inhibitors by the method of Rozhin et al, Journal of Biological Chemistry, 252:7214-7220 (October 25, 1977), herein incorporated by reference.
Isolation of Estrogen Sulfotransferase (EC 2.8.2.4). The enzyme was isolated from the bovine adrenals and purified by ammonium sulfate fractionation and column chromatography on DEAE-cellulose or DEAE-SephadexA-50 [Rozhin et al (1974)].
Standard Enzyme Assay. The incubation mixtures contained the following in a total volume of 0.2 ml: 0.4 mM P-Ado-PS; 2 to 23 μM estrone (3-hydroxy-1,3,5(10)-estratriene-17-one), 5×10^5 dpm of [6,7-^3 H]estrone; 5 mM magnesium acetate; 0.19 M Tris/HCl buffer (pH 8.1 at 37°); 5 ug of the enzyme; and 25 μM dithiothreitol. After a 10-min incubation (in the presence of a constant amount of inhibitor and a variable amount of estrone), the boiled mixtures were supplemented with 5 μg of aqueous estrone sulfate. The remaining [^3 H]estrone was extracted three times with 0.3 ml of ethyl ether. The residual ether was removed and the volume adjusted to 0.5 ml with methanol. A sample (25 μl) was applied, together with 10 μg of methanolic estrone sulfate marker, to type SG chromatography media (Gelman Instrument Co., Ann Arbor, Mich.), and developed with chloroform/acetone/acetic acid (110:35:6). After drying the sheet, samples were visualized by spraying with methylene blue (25 mg in 100 ml of 0.05 N H2 SO4), punched out with a cork borer, and counted in 10 ml of dioxane counting liquid. A blank employing a boiled enzyme sample was incubated and the recorded counts were substracted from each determination. The total corrected counts, representing steroid sulfate ester, were converted to nanomoles utilizing the specific activity of [^3 H]estrone. An enzyme unit was defined as that quantity of enzyme which synthesized 1 nmol of estrone sulfate in 1 min under chosen conditions. […] When nonsubstrate steroids were used as the inhibitors, the procedure for the enzyme assay was as described earlier [Rozhin et al (1974)], utilizing 5 μg of enzyme, P-Ado-[^35 S]PS, and unlabeled estrone.
Data Processing. The initial velocity analysis was carried out keeping the concentration of P-Ado-PS at saturation level, varying the estrone concentration and keeping the concentration of the inhibitor at a fixed level. Preliminary plots of the data were made in the double reciprocal form (l/v versus l/[S]), and in the form of replots of slopes (and intercepts) versus inhibitor concentration. On the basis of these plots, the proper inhibition pattern was chosen for each experiment and the data points were fitted to the appropriate equation.
Linear competitive inhibition: [formula]
Hyperbolic competitive inhibition: [formula]
Slope-parabolic non-competitive inhibition: [formula]
All calculations were performed using Cleland's Fortran programs (Adv. Enzymol., 29:1-32). The programs gave the values of Km, Vmax, and inhibition constants.
Fractional Inhibition. From kinetic experiments, Ki was calculated as described above under "Data Processing" after making replots of slopes (and/or intercepts) versus inhibitor concentration. […] Substituting v and vi from the corresponding rate equations in the absence of (v=(Vmax [S])/(Km +[S])) and presence of a (competitive) inhibition (Equation 1), the following relationship for FI is obtained: [formula] After substituting [S], Km, and [I] (see above), the equation for the fractional (competitive) inhibition simplifies to: [formula] and the mathematical relationship between FI and Ki of competitive inhibitors is represented by the continuous curve in FIG. 2 in Rozhin et al., J. Biol. Chem., 252, 7214-7220, 1977. The dashed line represents the relationship between FI and the Ki of pure noncompetitive inhibition derived mathematically in an analogous manner and expressed as [formula] Since [I]=22.2 μM, [formula]

[2] = tested on: 17β-estradiol receptor (rabbit uterus 100,000×g supernatant); assay: Competitive binding: effect on binding of 17β-estradiol (E2) by rabbit uterine tissue; conditions: 2000-fold excess; 0.7 nM tritiated 17β-estradiol; 2 h on ice
Protocol: Competitive binding experiments were carried out utilizing the 100,000×g supernatant from rabbit uterus maintained at 4° C. Unlabeled competitive estrogens were added to the incubation 10 min. before tritiated 17β-estradiol. Incubations were carried out in quadruplicate for 2 h on ice. [2,4,6,7-^3 H]-17-Estradiol was added to 0.5 ml of supernatant (0.69 mg protein) at a concentration of 0.7 nM. Radioactivity in the bound 17β-estradiol was assayed by the dextran-coated charcoal (1:10) procedure.

[3] = tested on: estrogen sulfotransferase; assay: Blocking of estrogen sulfotransferase activity by 3-methoxy-4-nitroestrone (Example 4); format: biochemical; conditions: molar ratio of 10:1
[4] = pH 8.1, read-out: Fractional Inhibition (Table II)
[5] = inhibitors 2 to 4 and 9 to 12; from kinetic experiments; read-out: Ki (Table II), not among those calculated
[6] = pH 8.1; read-out: Fractional Inhibition (Table II)
[7] = inhibitors 2, 7 and 8; competitive inhibition equation; read-out: Ki (Table I), calculated from fractional inhibition (competitive inhibition)
[8] = pH 8.1; read-out: Fractional Inhibition (Table I)
[9] = pH 8.1, read-out: Fractional Inhibition (Table I)
[10] = inhibitors 3 to 6, 12 and 16; from kinetic experiments; read-out: Ki (Table I), determined experimentally
[11] = inhibitors 1 and 5 to 8; calculated from fractional inhibition; read-out: Ki (Table II), calculated from Equation 4 (competitive inhibition)

## C[C@]12CC[C@@H]3c4ccc(O)cc4CC[C@H]3[C@@H]1C[C@@H](O)[C@@H]2O [1,3,5(10)Estratriene-3,16α,17β-triol]
[1]
  Ki: 8.2 µM
[1]; [4]
  inhibition at 22.2 µM: 66%

## C[C@]12CC[C@@H]3c4ccc(O)cc4CC[C@H]3[C@@H]1C[C@@H](O)C2 [1,3,5(10)Estratriene-3,16α-diol]
[1]; [5]
  Ki: 1.3 µM
[1]; [6]
  inhibition at 22.2 µM: 89%

## C[C@]12CC[C@@H]3c4ccc(O)cc4CC[C@H]3[C@@H]1C[C@H](O)[C@@H]2O [1,3,5(10)Estratriene-3,16β,17β-triol]
[1]
  Ki: 5.5 µM
[1]; [4]
  inhibition at 22.2 µM: 72%

## CC(=O)Oc1ccc2c(c1)CC[C@@H]1[C@@H]2CC[C@]2(C)[C@@H](O)CC[C@@H]12 [1,3,5(10)Estratriene-3,17β-diol-3-acetate]
[1]; [7]
  Ki: 17 µM
[1]; [8]
  inhibition at 22.2 µM: 39%

## C[C@]12CC[C@@H]3c4ccc(OC(=O)c5ccccc5)cc4CC[C@H]3[C@@H]1CC[C@@H]2O [1,3,5(10)Estratriene-3,17β-diol-3-benzoate]
[1]
  Ki: 90 µM
[1]; [9]
  inhibition at 22.2 µM: 11%

## C[C@@]12CCC[C@H]1[C@@H]1CCc3cc(O)ccc3[C@H]1CC2 [1,3,5(10)Estratriene-3-ol]
[1]; [10]
  Ki: 3.5 µM
[1]; [8]
  inhibition at 22.2 µM: 67%

## C[C@]12CC[C@@H]3c4ccccc4CC[C@H]3[C@@H]1CC[C@@H]2O [1,3,5(10)Estratriene-17β-ol]
[1]; [7]
  Ki: 16 µM
[1]; [8]
  inhibition at 22.2 µM: 41%

## C[C@@]12CCC[C@H]1[C@@H]1CCc3ccccc3[C@H]1CC2 [1,3,5(10)Estratriene]
[1]; [8]
  inhibition at 22.2 µM: 0%

## C[C@]12CC[C@@H]3c4cc(Br)c(O)c(Br)c4CC[C@H]3[C@@H]1CC[C@@H]2O [2,4-Dibromo-1,3,5(10)estratriene-3,17β-diol]
[1]; [11]
  Ki: 0.11 µM
[1]; [6]
  inhibition at 22.2 µM: 99%

## C[C@]12CC[C@@H]3c4cc([N+](=O)[O-])c(O)c([N+](=O)[O-])c4CC[C@H]3[C@@H]1CC[C@@H]2O [2,4-Dinitro-1,3,5(10)estratriene-3,17β-diol]
[1]
  Ki: 4.3 µM
[1]; [4]
  inhibition at 22.2 µM: 72%

## C[C@]12CC[C@@H]3c4cc(N)c(O)cc4CC[C@H]3[C@@H]1CC[C@@H]2O [2-Amino-1,3,5(10)estratriene-3,17β-diol]
[1]; [11]
  Ki: 3.5 µM
[1]; [6]
  inhibition at 22.2 µM: 76%

## C[C@]12CC[C@@H]3c4cc([N+](=O)[O-])c(O)cc4CC[C@H]3[C@@H]1CC[C@@H]2O [2-Nitro-1,3,5(10)estratriene-3,17β-diol]
[1]; [5]
  Ki: 2.4 µM
[1]; [6]
  inhibition at 22.2 µM: 80%

## C[C@]12CC[C@@H]3c4ccc(O)cc4C(=O)C[C@H]3[C@@H]1CC[C@@H]2O [3,17β-Dihydroxy-1,3,5(10)-estratriene-6-one]
[1]
  Ki: 5.5 µM
[1]; [4]
  inhibition at 22.2 µM: 69%

## C[C@]12CC[C@@H]3c4ccc(O)cc4CC[C@H]3[C@@H]1CCC2=O [3-Hydroxy-1,3,5(10)estratriene-17-one]
[1]
  Ki: 4.9 µM
[1]; [8]
  inhibition at 22.2 µM: 65%

## COc1ccc2c(c1)CC[C@@H]1[C@@H]2CC[C@]2(C)[C@@H](O)CC[C@@H]12 [3-Methoxy-1,3,5(10)estratriene-17β-ol]
[1]; [10]
  Ki: 4.8 µM
[1]; [8]
  inhibition at 22.2 µM: 61%

## COc1ccc2c(c1[N+](=O)[O-])CC[C@@H]1[C@@H]2CC[C@]2(C)C(=O)CC[C@@H]12 [3-Methoxy-4-NO2-1,3,5(10)-estratriene-17-one]
[2]
  blocking of binding of 17β-estradiol to its receptor: not blocked
[1]; [11]
  Ki: 4.3 µM
[1]; [6]
  inhibition at 22.2 µM: 72%
[3]
  blocked activity of estrogen sulfotransferase: > 90%

## C[C@]12CC[C@H](O)CC1=CC[C@@H]1[C@@H]2CC[C@]2(C)C(=O)CC[C@@H]12 [3β-Hydroxy-5-androstene-17-one]
[1]
  Ki: 170 µM
[1]; [9]
  inhibition at 22.2 µM: 21%

## C[C@]12CC[C@H](O)C[C@H]1CC[C@@H]1[C@@H]2CC[C@]2(C)C(=O)CC[C@@H]12 [3β-Hydroxy-5β-androstane-17-one]
[1]
  Ki: 302 µM
[1]; [9]
  inhibition at 22.2 µM: 13%

## C[C@]12CC[C@@H]3c4ccc(O)c(N)c4CC[C@H]3[C@@H]1CC[C@@H]2O [4-Amino-1,3,5(10)estratriene-3,17β-diol]
[1]; [11]
  Ki: 3.5 µM
[1]; [6]
  inhibition at 22.2 µM: 76%

## C[C@]12CC[C@@H]3c4ccc(O)c([N+](=O)[O-])c4CC[C@H]3[C@@H]1CC[C@@H]2O [4-Nitro-1,3,5(10)estratriene-3,17β-diol]
[1]; [5]
  Ki: 0.15 µM
[1]; [6]
  inhibition at 22.2 µM: 98%

## C[C@]12CC[C@H]3[C@@H](CC=C4C[C@@H](O)CC[C@@]43C)[C@@H]1CC[C@@H]2O [5-Androstene-3β,17β-diol]
[1]
  Ki: 35 µM
[1]; [9]
  inhibition at 22.2 µM: 39%

## C[C@@]12CCC[C@H]1[C@@H]1CC=C3C[C@@H](O)CC[C@]3(C)[C@H]1CC2 [5-Androstene-3β-ol]
[1]; inhibitors 10, 11 and 13 to 15; Equation 5 (noncompetitive); read-out: Ki (Table I), calculated from fractional inhibition (noncompetitive inhibition)
  Ki: 50 µM
[1]; [8]
  inhibition at 22.2 µM: 31%

## C[C@@]12CCC[C@H]1[C@@H]1CC=C3CCCC[C@]3(C)[C@H]1CC2 [5-Androstene]
[1]; [8]
  inhibition at 22.2 µM: 0%
[1]; summary statement
  estrogen sulfotransferase inhibition, in words: inactive

## C[C@]12CC[C@H](O)C[C@@H]1CC[C@@H]1[C@@H]2CC[C@]2(C)[C@@H](O)CC[C@@H]12 [5α-Androstane-3β,17β-diol]
[1]
  Ki: 47 µM
[1]; [9]
  inhibition at 22.2 µM: 32%

## C[C@]12CCC(=O)C[C@@H]1CC[C@@H]1[C@@H]2CC[C@]2(C)[C@@H](O)CC[C@@H]12 [17β-Hydroxy-5α-androstane-3-one]
[1]
  Ki: 38 µM
[1]; [9]
  inhibition at 22.2 µM: 37%

## C[C@]12CCC(=O)C[C@H]1CC[C@@H]1[C@@H]2CC[C@]2(C)[C@@H](O)CC[C@@H]12 [17β-Hydroxy-5β-androstane-3-one]
[1]
  Ki: 74 µM
[1]; [9]
  inhibition at 22.2 µM: 23%
